# Measured values from PubChem BioAssay AID1845216 (Molecular Pharmacology Branch, DTP, NCI, 2023).
# Values joined by “and” are separate entries in the source; they are usually repeats but may differ in a detail not shown here. Equal values may be shown once.
# Test system: SW 982 tumor spheroid viability
# Assay: Anticancer human tumor SW 982 cell line growth inhibition;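 further: spheroids exposed to compound for 7 days before readout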
# Conditions: spheroids with HUVEC and MSC; for viability, T/C: stronger effect = lower value
# In short: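 Complex tumor spheroids combined malignant cells with endothelial cells and mesenchymal stem cells. DNA-damaging drugs and DNA repair inhibitors were tested alone and in combination, at half-log dilutions down from clinical Cmax (top 10 microM if Cmax unknown), 0.25% DMSO final.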
smiles,measurement,setting,value
CC1COCCN1c1cc(-c2ccnn2C)c2ccnc(-c3ccn[nH]3)c2n1 (stereo not given),"viability, T/C",compound 0.0316 µM,27.4% and 44.4% and 38.4%
same,"viability, T/C",compound 0.1 µM,20.4% and 25.4% and 17.1%
same,"viability, T/C",compound 0.316 µM,16.2% and 17.9% and 12.3%
same,"viability, T/C",compound 1 µM,13.2% and 15.2% and 10.5%
same,"viability, T/C",compound 3.16 µM,20% and 15.6% and 11%
same,"viability, T/C",compound 10 µM,22.1% and 22.6% and 14.1%
same,IC50,curve of compound,< 0.0316 µM
Cc1cc(C)c(CNC(=O)c2cc(-c3ccc(CN4CCOCC4)cc3)cc3c2cnn3C2CCCC2)c(=O)[nH]1,"viability, T/C",compound 0.0316 µM,111% and 101% and 106%
same,"viability, T/C",compound 0.1 µM,99.1% and 105% and 100%
same,"viability, T/C",compound 0.316 µM,97.4% and 99.9% and 105%
same,"viability, T/C",compound 1 µM,102% and 99.6% and 105%
same,"viability, T/C",compound 3.16 µM,95.3% and 98.8% and 82%
same,"viability, T/C",compound 10 µM,60.5% and 58.6% and 69%
same,IC50,curve of compound,> 10 µM
COc1ccc([C@@H](O)c2cc(-c3ncnc4cc(N5CCOCC5)ccc34)c(F)cc2Cl)nn1 + COc1cc2c(cc1O)CCNC21CSC2c3c(OC(C)=O)c(C)c4c(c3C(COC1=O)N1C(O)C3Cc5cc(C)c(OC)c(O)c5C(C21)N3C)OCO4,IC50,"curve of first compound, second compound 30 pM",7.19 µM
same,IC50,"curve of first compound, second compound 94.9 pM",4.6 µM
same,IC50,"curve of first compound, second compound 0.0003 µM",1.07 µM
same,IC50,"curve of first compound, second compound 0.000949 µM",< 0.0316 µM
same,IC50,"curve of first compound, second compound 0.003 µM",< 0.0316 µM
same,"viability, T/C","second compound 30 pM, first compound 0.0316 µM",102%
same,"viability, T/C","second compound 30 pM, first compound 0.1 µM",102%
same,"viability, T/C","second compound 30 pM, first compound 0.316 µM",96.4%
same,"viability, T/C","second compound 30 pM, first compound 1 µM",88.8%
same,"viability, T/C","second compound 30 pM, first compound 3.16 µM",79.6%
same,"viability, T/C","second compound 30 pM, first compound 10 µM",38.8%
same,"viability, T/C","second compound 94.9 pM, first compound 0.0316 µM",96.3%
same,"viability, T/C","second compound 94.9 pM, first compound 0.1 µM",97.3%
same,"viability, T/C","second compound 94.9 pM, first compound 0.316 µM",93.4%
same,"viability, T/C","second compound 94.9 pM, first compound 1 µM",70.8%
same,"viability, T/C","second compound 94.9 pM, first compound 3.16 µM",65.9%
same,"viability, T/C","second compound 94.9 pM, first compound 10 µM",26.9%
same,"viability, T/C","second compound 0.0003 µM, first compound 0.0316 µM",84.1%
same,"viability, T/C","second compound 0.0003 µM, first compound 0.1 µM",83.1%
same,"viability, T/C","second compound 0.0003 µM, first compound 0.316 µM",84%
same,"viability, T/C","second compound 0.0003 µM, first compound 1 µM",48%
same,"viability, T/C","second compound 0.0003 µM, first compound 3.16 µM",23.6%
same,"viability, T/C","second compound 0.0003 µM, first compound 10 µM",6.67%
same,"viability, T/C","second compound 0.000949 µM, first compound 0.0316 µM",36.2%
same,"viability, T/C","second compound 0.000949 µM, first compound 0.1 µM",32.6%
same,"viability, T/C","second compound 0.000949 µM, first compound 0.316 µM",19.4%
same,"viability, T/C","second compound 0.000949 µM, first compound 1 µM",4.23%
same,"viability, T/C","second compound 0.000949 µM, first compound 3.16 µM",0.86%
same,"viability, T/C","second compound 0.000949 µM, first compound 10 µM",0.73%
same,"viability, T/C","second compound 0.003 µM, first compound 0.0316 µM",0.88%
same,"viability, T/C","second compound 0.003 µM, first compound 0.1 µM",0.57%
same,"viability, T/C","second compound 0.003 µM, first compound 0.316 µM",0.41%
same,"viability, T/C","second compound 0.003 µM, first compound 1 µM",1.06%
same,"viability, T/C","second compound 0.003 µM, first compound 3.16 µM",1.12%
same,"viability, T/C","second compound 0.003 µM, first compound 10 µM",1.01%
Cn1nnc2c(C(N)=O)ncn2c1=O,"viability, T/C",compound 1 µM,96.1% [middle of 10 runs]
same,"viability, T/C",compound 3.16 µM,90.9% [middle of 10 runs]
same,"viability, T/C",compound 10 µM,79.1% [middle of 10 runs]
same,"viability, T/C",compound 31.6 µM,69.1% [middle of 10 runs]
same,"viability, T/C",compound 100 µM,57.1% [middle of 10 runs]
same,IC50,"compound alone, run of 12/02/2019",> 100 µM
